Source: ChEMBL document CHEMBL5154908, “Design, Synthesis, and Biological Characterization of Inhaled p38α/β MAPK Inhibitors for the Treatment of Lung Inflammatory Diseases” (J Med Chem, 2022)

Assays:
[1] = target: T1, Mitogen-activated protein kinase 14 (Homo sapiens, UniProt Q16539); assay: Displacement of SKF-86002 from human inactivated p38alpha assessed as dissociation half life incubated for 2 hrs by fluorescence based analysis
[2] = Inhibition of LPS-stimulated TNFalpha release in human PBMC cells preincubated for 1 hr followed by LPS stimulation and measured after 18 hrs; type: functional, cell-based
[3] = target: T1, Mitogen-activated protein kinase 14; assay: Inhibition of human recombinant full length GST-tagged p38alpha expressed in Escherichia coli preincubated for 2 hrs followed by ATP addition and measured after 1 hr by Alpha screen assay

T1 sequence (Q16539 whole entry): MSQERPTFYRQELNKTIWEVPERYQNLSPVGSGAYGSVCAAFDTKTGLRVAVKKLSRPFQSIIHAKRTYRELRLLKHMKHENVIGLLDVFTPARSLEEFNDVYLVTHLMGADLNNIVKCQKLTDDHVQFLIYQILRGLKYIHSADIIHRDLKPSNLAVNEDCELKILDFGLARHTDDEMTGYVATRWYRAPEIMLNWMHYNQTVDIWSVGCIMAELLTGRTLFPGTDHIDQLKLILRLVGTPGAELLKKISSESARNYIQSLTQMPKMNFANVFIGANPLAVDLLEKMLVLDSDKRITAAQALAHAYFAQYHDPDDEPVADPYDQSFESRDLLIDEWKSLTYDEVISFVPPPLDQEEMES

Row | Structure (SMILES) | T1/2 [1] [h] | IC50 [2] [nM] | IC50 [3] [nM]
1 | CC(C)c1nnc2ccc(O[C@@H]3CC[C@H](NC(=O)Nc4cc(C(C)(C)C)nn4C)c4ccccc43)cn12 | 0.07 | 3.9 | 0.3
2 | CC(C)(C)c1cc(NC(=O)N[C@H]2CC[C@@H](Oc3ccc4nnc(N5CCCCC5)n4c3)c3ccccc32)n(-c2cccc(CN3CCNCC3)c2)n1 | 5 | 1.1 | 0.8
3 | C[C@H]1CCCCN1c1nnc2ccc(O[C@@H]3CC[C@H](NC(=O)Nc4cc(C(C)(C)C)nn4-c4cnn(CCN5CCOCC5)c4)c4ccccc43)cn12 | > 16 | 1.8 | 0.5
4 | CC(C)c1nnc2ccc(O[C@@H]3CC[C@H](NC(=O)Nc4cc(C(C)(C)C)nn4-c4ccc(Cl)c(O)c4)c4ccccc43)cn12 | 0.89 | 0.7 | 0.05
5 | CC(C)c1nnc2ccc(O[C@@H]3CC[C@H](NC(=O)Nc4cc(C(C)(C)C)nn4-c4ccc(O)c(Cl)c4)c4ccccc43)cn12 | 1.31 | 1.1 | 0.08
6 | C[C@H]1CCCCN1c1nnc2ccc(O[C@@H]3CC[C@H](NC(=O)Nc4cc(C(C)(C)C)nn4-c4cccc(OCCN5CCN(C)CC5)c4)c4ccccc43)cn12 | 5.1 | 2.1 | 0.3
7 | C[C@H]1CCCCN1c1nnc2ccc(O[C@@H]3CC[C@H](NC(=O)Nc4cc(C(C)(C)C)nn4-c4cnn(CCN5CCN(C)CC5)c4)c4ccccc43)cn12 | > 16 | 3.2 | 0.3
8 | CC(C)c1nnc2ccc(O[C@@H]3CC[C@H](NC(=O)Nc4cc(C(C)(C)C)nn4-c4cccc(OCCN(C)C)c4)c4ccccc43)cn12 | 0.89 | 9.1 | 0.8
9 | C[C@H]1CCCCN1c1nnc2ccc(O[C@@H]3CC[C@H](NC(=O)Nc4cc(C(C)(C)C)nn4-c4cnn(CCN5CCC(O)CC5)c4)c4ccccc43)cn12 | > 16 | 5.1 | 0.4
10 | C[C@H]1CCCCN1c1nnc2ccc(O[C@@H]3CC[C@H](NC(=O)Nc4cc(C(C)(C)C)nn4-c4cccc(OCCN(C)C)n4)c4ccccc43)cn12 | 2.9 | 5.8 | 2
11 | C[C@@H]1CCC[C@H](C)N1c1nnc2ccc(O[C@@H]3CC[C@H](NC(=O)Nc4cc(C(C)(C)C)nn4-c4cccc(OCCN(C)C)c4)c4ccccc43)cn12 | > 16 | 1 | 0.3
12 | C[C@H]1CCCCC1c1nnc2ccc(O[C@@H]3CC[C@H](NC(=O)Nc4cc(C(C)(C)C)nn4-c4cccc(CN5CCN(C)CC5)c4)c4ccccc43)cn12 (stereo partly specified) | > 16 | 1 | 0.3
13 | C[C@@H]1CCCCN1c1nnc2ccc(O[C@@H]3CC[C@H](NC(=O)Nc4cc(C(C)(C)C)nn4-c4cccc(OCCN(C)C)c4)c4ccccc43)cn12 | 5.4 | 1.6 | 0.2
14 | CCN(C)CCn1cc(-n2nc(C(C)(C)C)cc2NC(=O)N[C@H]2CC[C@@H](Oc3ccc4nnc(N5CCCC[C@@H]5C)n4c3)c3ccccc32)cn1 | 9 | 2.5 | 0.2
15 | C[C@H]1CCCCN1c1nnc2ccc(O[C@@H]3CC[C@H](NC(=O)Nc4cc(C(C)(C)C)nn4-c4cnnc(OCCN(C)C)c4)c4ccccc43)cn12 | 1.1 | 1.2 | 0.3
16 | CC(C)c1nnc2ccc(O[C@@H]3CC[C@H](NC(=O)Nc4cc(C(C)(C)C)nn4-c4cccc(OCCO)c4)c4ccccc43)cn12 | 1.9 | 1 | 0.4
17 | CC(C)c1nnc2ccc(O[C@@H]3CC[C@H](NC(=O)Nc4cc(C(C)(C)C)nn4-c4ccccc4)c4ccccc43)cn12 | 1.74 | 0.5 | 0.06
18 | C[C@H]1CCCCN1c1nnc2ccc(O[C@@H]3CC[C@H](NC(=O)Nc4cc(C(C)(C)C)nn4-c4cncc(OCCN(C)C)c4)c4ccccc43)cn12 | 5 | 1 | 0.03
19 | C[C@H]1CCCCN1c1nnc2ccc(O[C@@H]3CC[C@H](NC(=O)Nc4cc(C(C)(C)C)nn4-c4cnn(CCN5CCCOCC5)c4)c4ccccc43)cn12 | > 16 | 0.8 | 0.4
20 | Cc1ccc(-n2nc(C(C)(C)C)cc2NC(=O)N[C@H]2CC[C@H](Oc3ccc4nnc(C(C)C)n4c3)CC2)cc1 | 0.09 | 36 | 6.1
21 | C[C@H]1CCCCN1c1nnc2ccc(O[C@@H]3CC[C@H](NC(=O)Nc4cc(C(C)(C)C)nn4-c4ccn(CCN(C)C)n4)c4ccccc43)cn12 | 1.9 | 2.7 | 0.2
22 | CC(C)(C)c1cc(NC(=O)N[C@H]2CC[C@@H](Oc3ccc4nnc(N5CCCCC5)n4c3)c3ccccc32)n(-c2cccc(CN3CCCCC3)c2)n1 | 1.2 | 1.9 | 1.3
23 | C[C@H]1CCCCC1c1nnc2ccc(O[C@@H]3CC[C@H](NC(=O)Nc4cc(C(C)(C)C)nn4-c4cccc(OCCN5CCOCC5)c4)c4ccccc43)cn12 (stereo partly specified) | > 16 | 0.8 | 0.5
24 | COCCN(C)CCn1cc(-n2nc(C(C)(C)C)cc2NC(=O)N[C@H]2CC[C@@H](Oc3ccc4nnc(N5CCCC[C@@H]5C)n4c3)c3ccccc32)cn1 | > 16 | 0.9 | 0.2

The remaining lines, values ahead:

Row | T1/2 [1] [h] | IC50 [2] [nM] | IC50 [3] [nM] | Structure (SMILES)
25 | > 16 | 0.3 | 0.5 | Cc1ccc(-n2nc(C(C)(C)C)cc2NC(=O)N[C@H]2CC[C@@H](Oc3ccc4nnc(N5CCCC5)n4c3)c3ccccc32)cc1
26 | 3.5 | 1.4 | 0.2 | CN(C)CCOc1cc(-n2nc(C(C)(C)C)cc2NC(=O)N[C@H]2CC[C@@H](Oc3ccc4nnc(N5CCCCC5)n4c3)c3ccccc32)ccc1Cl
27 | > 16 | 0.2 | 0.6 | CC(C)(C)c1cc(NC(=O)N[C@H]2CC[C@@H](Oc3ccc4nnc(N5CCCCC5)n4c3)c3ccccc32)n(-c2cccc(CO)c2)n1
28 | > 16 | 0.4 | 0.3 | Cc1ccc(-n2nc(C(C)(C)C)cc2NC(=O)N[C@H]2CC[C@@H](Oc3ccc4nnc(C5CCCCC5)n4c3)c3ccccc32)cc1
29 | > 16 | 2.1 | 0.5 | Cc1ccc(-n2nc(C(C)(C)C)cc2NC(=O)N[C@H]2CC[C@@H](Oc3ccc4nnc(N5CCC(O)CC5)n4c3)c3ccccc32)cc1
30 | > 16 | 14 | 0.4 | CC(C)(C)c1cc(NC(=O)N[C@H]2CC[C@@H](Oc3ccc4nnc(N5CCC(O)CC5)n4c3)c3ccccc32)n(-c2ccc(CO)cc2)n1
31 | > 16 | 0.1 | 0.1 | Cc1ccc(-n2nc(C(C)(C)C)cc2NC(=O)N[C@H]2CC[C@H](Oc3ccc4nnc(C(C)C)n4c3)c3ccccc32)cc1
32 | 1.4 | 2.2 | 0.6 | CN1CCN(Cc2ccc(-n3nc(C(C)(C)C)cc3NC(=O)N[C@H]3CC[C@@H](Oc4ccc5nnc(N6CCCCC6)n5c4)c4ccccc43)cc2)CC1
33 | 9 | 2.5 | 1 | Cc1ccc(-n2nc(C(C)(C)C)cc2NC(=O)N[C@H]2CC[C@@H](Oc3ccc4nnc(N5CCN(C)CC5)n4c3)c3ccccc32)cc1
34 | 3.6 | 1.3 | 0.6 | CN(C)CCOc1cccc(-n2nc(C(C)(C)C)cc2NC(=O)N[C@H]2CC[C@@H](Oc3ccc4nnc(N5CCCCC5)n4c3)c3ccccc32)c1
35 | > 16 | 0.2 | 0.5 | CC(C)(C)c1cc(NC(=O)N[C@H]2CC[C@@H](Oc3ccc4nnc(N5CCCCC5)n4c3)c3ccccc32)n(-c2ccc(Cl)c(O)c2)n1
36 | 5.8 | 0.9 | 1.1 | Cc1ccc(-n2nc(C(C)(C)C)cc2NC(=O)N[C@H]2CC[C@@H](Oc3ccc4nnc(N5CCOCC5)n4c3)c3ccccc32)cc1
37 | > 16 | 0.3 | 0.1 | Cc1ccc(-n2nc(C(C)(C)C)cc2NC(=O)N[C@H]2CC[C@@H](Oc3ccc4nnc(C5CCCC5)n4c3)c3ccccc32)cc1
